Results published in US11008293B2, “5-carboxamide-2-thiobarbituric acids and use thereof as medicaments” (FONDAZIONE ISTITUTO ITALIANO DI TECNOLOGIA, priority 2017, dated 2021).

What was measured:
Format in all cases: cell-based
A549 = experiment: Antiproliferative activity on A549 cancer cells; conditions: Homo sapiens
DU145 = experiment: Antiproliferative activity on DU145 cancer cells; conditions: Homo sapiens, DU-145
HeLa = experiment: Antiproliferative activity on HeLa cancer cells; conditions: Homo sapiens
MCF7 = experiment: Antiproliferative activity on MCF7 cancer cells; conditions: Homo sapiens

Q: For COc1cc(NC(=O)c2c(O)n(-c3ccccc3)c(=S)n(-c3ccccc3)c2=O)cc(OC)c1O, which IC50 (A549) is on record?
A: 17.5 ± 1.1 µM

Q: What about the IC50 (DU145) of the same molecule?
A: 26.7 ± 0.1 µM

Q: What about the IC50 (HeLa) of the same molecule?
A: 18.1 ± 0.8 µM

Q: What about the IC50 (MCF7) of the same molecule?
A: 53.5 ± 1.9 µM

Q: O=C(Nc1ccc(O)cc1)c1c(O)n(-c2ccccc2)c(=S)n(-c2ccccc2)c1=O was tested. Which IC50 (A549) did it give?
A: 37.1 ± 3.7 µM

Q: What about the IC50 (DU145) of the same molecule?
A: 42.5 ± 7.7 µM

Q: What about the IC50 (HeLa) of the same molecule?
A: 42.9 ± 6.1 µM

Q: What about the IC50 (MCF7) of the same molecule?
A: 66.1 ± 7.5 µM

Q: What does the source list for COc1cccc(NC(=O)c2c(O)n(-c3ccccc3)c(=S)n(-c3ccccc3)c2=O)c1?
A: IC50 (A549): 6.9 ± 0.2 µM; IC50 (DU145): 12.5 ± 1.5 µM; IC50 (HeLa): 8.5 ± 0.5 µM; IC50 (MCF7): 14 ± 0.9 µM

Q: What does the source list for O=C(Nc1cccc(O)c1)c1c(O)n(-c2ccccc2)c(=S)n(-c2ccccc2)c1=O?
A: IC50 (A549): 59.4 ± 6.1 µM; IC50 (DU145): 49.6 ± 2.7 µM; IC50 (HeLa): 39.1 ± 0.7 µM; IC50 (MCF7): 94.2 ± 3.1 µM
